According to US20240158446A1, “CYCLIC COMPOUND HAVING SELECTIVE INHIBITORY ACTION ON KRAS OVER HRAS AND NRAS” (CHUGAI SEIYAKU KABUSHIKI KAISHA, priority 2021, published 2024):
pKd: −log10 of the molar value. Where a SMILES comes first, the peptide text is derived from it. Bridges are numbered along the chain shown (N, C = ends). [ ]: non-standard residue; d: D form. The star is where a group is joined. hPhe(3-Cl-4-CF3) = N[C@@H](CCc1ccc(C(F)(F)F)c(Cl)c1)C(=O)O; NPrPhe(4-CF3) = CCCN[C@@H](Cc1ccc(C(F)(F)F)cc1)C(=O)O; Pip(4,4-F2) = O=C(O)[C@@H]1CC(F)(F)CCN1; NMeGly(cPent) = CN[C@H](C(=O)O)C1CCCC1; Pro(4,4-F2) = O=C(O)[C@@H]1CC(F)(F)CN1; Hyp = O=C(O)[C@@H]1C[C@@H](O)CN1; NMeD = CN[C@@H](CC(=O)O)C(=O)O; NMeL = CN[C@@H](CC(C)C)C(=O)O; Morpholide = C1CN(*)CCO1; Ac5c = NC1(C(=O)O)CCCC1; Aze = O=C(O)[C@@H]1CCN1; Ac4c = NC1(C(=O)O)CCC1; NPrGly = CCCNCC(=O)O; Sar = CNCC(=O)O

How the values were obtained:
[1] = target: GDP-bound KRAS wild-type protein (Homo sapiens, UniProt P01116); assay: Binding to KRAS by surface plasmon resonance (SPR), Single Cycle Kinetics; details: SPR Single Cycle Kinetics, GDP-bound KRAS wild-type protein, 1:1 binding model; read-out: KRAS KD
GDP-bound KRAS wild-type protein, sequence (P01116 whole entry): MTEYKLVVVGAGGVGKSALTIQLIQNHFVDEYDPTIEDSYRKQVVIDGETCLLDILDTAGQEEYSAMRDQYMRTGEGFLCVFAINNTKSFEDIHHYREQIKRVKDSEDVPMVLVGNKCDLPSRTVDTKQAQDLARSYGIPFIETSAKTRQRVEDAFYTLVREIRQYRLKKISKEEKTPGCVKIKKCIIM

[2] = target: GDP-bound NRAS wild-type protein (Homo sapiens, UniProt P01111); assay: Binding to NRAS by surface plasmon resonance (SPR), Single Cycle Kinetics; details: SPR, GDP-bound NRAS wild-type protein vs GDP-bound KRAS wild-type protein
GDP-bound NRAS wild-type protein, sequence (P01111 whole entry): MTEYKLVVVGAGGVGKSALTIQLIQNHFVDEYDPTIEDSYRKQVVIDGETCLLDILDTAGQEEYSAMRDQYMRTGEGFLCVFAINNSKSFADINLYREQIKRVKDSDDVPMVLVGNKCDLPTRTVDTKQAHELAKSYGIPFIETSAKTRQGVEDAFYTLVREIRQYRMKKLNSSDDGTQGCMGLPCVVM

[3] = target: GDP-bound HRAS wild-type protein (Homo sapiens, UniProt P01112); assay: Binding to HRAS by surface plasmon resonance (SPR), Single Cycle Kinetics; details: SPR, GDP-bound HRAS wild-type protein vs GDP-bound KRAS wild-type protein
GDP-bound HRAS wild-type protein, sequence (P01112 whole entry): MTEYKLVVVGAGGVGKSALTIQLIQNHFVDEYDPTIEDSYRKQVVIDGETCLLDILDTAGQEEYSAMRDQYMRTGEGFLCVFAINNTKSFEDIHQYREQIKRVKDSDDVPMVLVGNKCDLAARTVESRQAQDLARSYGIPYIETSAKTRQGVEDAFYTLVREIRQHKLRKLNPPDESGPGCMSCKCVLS

Row | Structure (SMILES) | pKd [1] | NRAS/KRAS (ratio of KD value for NRAS to KD value for KRAS) [2] | HRAS/KRAS (ratio of KD value for HRAS to KD value for KRAS) [3]
1 | CCCN1C(=O)CN(C)C(=O)[C@@H]2CCN2C(=O)[C@H]([C@@H](C)CC)NC(=O)[C@H](CC(C)C)N(C)C(=O)C[C@@H](C(=O)N2CCOCC2)N(C)C(=O)[C@H](C2CCCC2)N(C)C(=O)C2(CCCC2)NC(=O)[C@@H]2CC(F)(F)CCN2C(=O)[C@H](CCc2ccc(C(F)(F)F)c(Cl)c2)NC(=O)CN(C)C(=O)[C@@H]1Cc1ccc(C(F)(F)F)cc1 [PP0312] ([NMeL]I[Aze][Sar][NPrPhe(4-CF3)][Sar][hPhe(3-Cl-4-CF3)][Pip(4,4-F2)][Ac5c][NMeGly(cPent)][NMeD]-Morpholide; lactam N-11) | 8.47 | B (a compound having 3 or more and less than 10 is denoted as B) | B (a compound having 3 or more and less than 10 is denoted as B)
2 | CCCN1C(=O)CN(C)C(=O)[C@@H]2CCN2C(=O)[C@H]([C@@H](C)CC)NC(=O)[C@H](CC(C)C)N(C)C(=O)C[C@@H](C(=O)N2CCOCC2)N(C)C(=O)[C@H](C2CCCC2)N(C)C(=O)C2(CCCC2)NC(=O)CN(C)C(=O)[C@H](CCc2ccc(C(F)(F)F)c(Cl)c2)NC(=O)CN(C)C(=O)[C@@H]1Cc1ccc(C(F)(F)F)cc1 [PP0314] ([NMeL]I[Aze][Sar][NPrPhe(4-CF3)][Sar][hPhe(3-Cl-4-CF3)][Sar][Ac5c][NMeGly(cPent)][NMeD]-Morpholide; lactam N-11) | 8.80 | B (a compound having 3 or more and less than 10 is denoted as B) | C (A compound having a KD ratio of 0.1 or more and less than 3 is denoted as C)
3 | CCCN1CC(=O)NC2(CCCC2)C(=O)N(C)[C@@H](C2CCCC2)C(=O)N(C)[C@H](C(=O)N2CCOCC2)CC(=O)N(C)[C@@H](CC(C)C)C(=O)N[C@@H]([C@@H](C)CC)C(=O)N2CC[C@H]2C(=O)N(C)CC(=O)N(CCC)[C@@H](Cc2ccc(C(F)(F)F)cc2)C(=O)N(C)CC(=O)N[C@@H](CCc2ccc(C(F)(F)F)c(Cl)c2)C1=O [PP0315] ([NMeL]I[Aze][Sar][NPrPhe(4-CF3)][Sar][hPhe(3-Cl-4-CF3)][NPrGly][Ac5c][NMeGly(cPent)][NMeD]-Morpholide; lactam N-11) | 8.42 | B (a compound having 3 or more and less than 10 is denoted as B) | B (a compound having 3 or more and less than 10 is denoted as B)
4 | CC[C@H](C)[C@@H]1NC(=O)[C@H](CC(C)C)N(C)C(=O)C[C@@H](C(=O)N2CCOCC2)N(C)C(=O)[C@H](C2CCCC2)N(C)C(=O)C2(CCCC2)NC(=O)[C@@H]2CCCN2C(=O)[C@H](CCc2ccc(C(F)(F)F)c(Cl)c2)NC(=O)CN(C)C(=O)[C@H](Cc2ccc(C)cc2)N2CCCC[C@@H](C2=O)N(C)C(=O)CN(C)C1=O [PP0316] | 10.27 | C (A compound having a KD ratio of 0.1 or more and less than 3 is denoted as C) | B (a compound having 3 or more and less than 10 is denoted as B)
5 | CC[C@H](C)[C@@H]1NC(=O)[C@H](CC(C)C)N(C)C(=O)C[C@@H](C(=O)N2CCOCC2)N(C)C(=O)[C@H](C2CCCC2)N(C)C(=O)C2(CCCC2)NC(=O)[C@@H]2CCCN2C(=O)[C@H](CCc2ccc(C(F)(F)F)c(Cl)c2)NC(=O)CN(C)C(=O)[C@H](Cc2ccc(C)cc2)N2CCCCC[C@@H](C2=O)N(C)C(=O)CN(C)C1=O [PP0317] | 9.07 | B (a compound having 3 or more and less than 10 is denoted as B) | B (a compound having 3 or more and less than 10 is denoted as B)
6 | CC[C@H](C)[C@@H]1NC(=O)[C@H](CC(C)C)N(C)C(=O)C[C@@H](C(=O)N2CCOCC2)N(C)C(=O)[C@H](C2CCCC2)N(C)C(=O)C2(CCCC2)NC(=O)[C@@H]2CCCN2C(=O)[C@H](CCc2ccc(C(F)(F)F)c(Cl)c2)NC(=O)CN(C)C(=O)[C@H](Cc2ccc(C(F)(F)F)cc2)N2CCCC[C@@H](C2=O)N(C)C(=O)CN(C)C1=O [PP0318] | 10.47 | B (a compound having 3 or more and less than 10 is denoted as B) | B (a compound having 3 or more and less than 10 is denoted as B)
7 | CCCN1C(=O)CN(C)C(=O)CN(C)C(=O)[C@H]([C@@H](C)CC)NC(=O)[C@H](CC(C)C)N(C)C(=O)C[C@@H](C(=O)N2CCOCC2)NC(=O)[C@H](C2CCCC2)N(C)C(=O)C2(CCC2)NC(=O)[C@@H]2CCCN2C(=O)[C@H](CCc2ccc(C(F)(F)F)c(Cl)c2)NC(=O)CN(C)C(=O)[C@@H]1Cc1ccc(C(F)(F)F)cc1 [PP0320] ([NMeL]I[Sar][Sar][NPrPhe(4-CF3)][Sar][hPhe(3-Cl-4-CF3)]P[Ac4c][NMeGly(cPent)]D-Morpholide; lactam N-11) | 9.05 | B (a compound having 3 or more and less than 10 is denoted as B) | B (a compound having 3 or more and less than 10 is denoted as B)
8 | CCCN1C(=O)CN(C)C(=O)CN(C)C(=O)[C@H]([C@@H](C)CC)NC(=O)[C@H](CC(C)C)N(C)C(=O)C[C@@H](C(=O)N2CCOCC2)NC(=O)[C@H](C2CCCC2)N(C)C(=O)C2(CCCC2)NC(=O)[C@@H]2CC(F)(F)CN2C(=O)[C@H](CCc2ccc(C(F)(F)F)c(Cl)c2)NC(=O)CN(C)C(=O)[C@@H]1Cc1ccc(C(F)(F)F)cc1 [PP0321] ([NMeL]I[Sar][Sar][NPrPhe(4-CF3)][Sar][hPhe(3-Cl-4-CF3)][Pro(4,4-F2)][Ac5c][NMeGly(cPent)]D-Morpholide; lactam N-11) | 9.00 | B (a compound having 3 or more and less than 10 is denoted as B) | B (a compound having 3 or more and less than 10 is denoted as B)
9 | CCCN1C(=O)CN(C)C(=O)CN(C)C(=O)[C@H]([C@@H](C)CC)NC(=O)[C@H](CC(C)C)N(C)C(=O)C[C@@H](C(=O)N2CCOCC2)NC(=O)[C@H](C2CCCC2)N(C)C(=O)C2(CCC2)NC(=O)[C@@H]2CC(F)(F)CN2C(=O)[C@H](CCc2ccc(C(F)(F)F)c(Cl)c2)NC(=O)CN(C)C(=O)[C@@H]1Cc1ccc(C(F)(F)F)cc1 [PP0322] ([NMeL]I[Sar][Sar][NPrPhe(4-CF3)][Sar][hPhe(3-Cl-4-CF3)][Pro(4,4-F2)][Ac4c][NMeGly(cPent)]D-Morpholide; lactam N-11) | 9.08 | B (a compound having 3 or more and less than 10 is denoted as B) | C (A compound having a KD ratio of 0.1 or more and less than 3 is denoted as C)
10 | CCCN1C(=O)CN(C)C(=O)CN(C)C(=O)[C@H]([C@@H](C)CC)NC(=O)[C@H](CC(C)C)N(C)C(=O)C[C@@H](C(=O)N2CCOCC2)NC(=O)[C@H](C2CCCC2)N(C)C(=O)C2(CCCC2)NC(=O)[C@@H]2C[C@@H](OCC)CN2C(=O)[C@H](CCc2ccc(C(F)(F)F)c(Cl)c2)NC(=O)CN(C)C(=O)[C@@H]1Cc1ccc(C(F)(F)F)cc1 [PP0323] ([NMeL]I[Sar][Sar][NPrPhe(4-CF3)][Sar][hPhe(3-Cl-4-CF3)][Hyp](Et)[Ac5c][NMeGly(cPent)]D-Morpholide; lactam N-11) | 9.60 | B (a compound having 3 or more and less than 10 is denoted as B) | B (a compound having 3 or more and less than 10 is denoted as B)
11 | CCCN1C(=O)CN(C)C(=O)CN(C)C(=O)[C@H]([C@@H](C)CC)NC(=O)[C@H](CC(C)C)N(C)C(=O)C[C@@H](C(=O)N2CCOCC2)NC(=O)[C@H](C2CCCC2)N(C)C(=O)C2(CCC2)NC(=O)[C@@H]2C[C@@H](OCC)CN2C(=O)[C@H](CCc2ccc(C(F)(F)F)c(Cl)c2)NC(=O)CN(C)C(=O)[C@@H]1Cc1ccc(C(F)(F)F)cc1 [PP0324] ([NMeL]I[Sar][Sar][NPrPhe(4-CF3)][Sar][hPhe(3-Cl-4-CF3)][Hyp](Et)[Ac4c][NMeGly(cPent)]D-Morpholide; lactam N-11) | 9.39 | B (a compound having 3 or more and less than 10 is denoted as B) | B (a compound having 3 or more and less than 10 is denoted as B)
12 | CCCN1C(=O)CN(C)C(=O)CNC(=O)[C@H]([C@@H](C)CC)NC(=O)[C@H](CC(C)C)N(C)C(=O)C[C@@H](C(=O)N2CCOCC2)NC(=O)[C@H](C2CCCC2)N(C)C(=O)C2(CCCC2)NC(=O)[C@@H]2CCCN2C(=O)[C@H](CCc2ccc(C(F)(F)F)c(Cl)c2)NC(=O)CN(C)C(=O)[C@@H]1Cc1ccc(C(F)(F)F)cc1 [PP0325] ([NMeL]IG[Sar][NPrPhe(4-CF3)][Sar][hPhe(3-Cl-4-CF3)]P[Ac5c][NMeGly(cPent)]D-Morpholide; lactam N-11) | 8.96 | B (a compound having 3 or more and less than 10 is denoted as B) | B (a compound having 3 or more and less than 10 is denoted as B)
13 | CCCN1C(=O)CN(C)C(=O)CNC(=O)[C@H]([C@@H](C)CC)NC(=O)[C@H](CC(C)C)N(C)C(=O)C[C@@H](C(=O)N2CCOCC2)NC(=O)[C@H](C2CCCC2)N(C)C(=O)C2(CCC2)NC(=O)[C@@H]2CCCN2C(=O)[C@H](CCc2ccc(C(F)(F)F)c(Cl)c2)NC(=O)CN(C)C(=O)[C@@H]1Cc1ccc(C(F)(F)F)cc1 [PP0326] ([NMeL]IG[Sar][NPrPhe(4-CF3)][Sar][hPhe(3-Cl-4-CF3)]P[Ac4c][NMeGly(cPent)]D-Morpholide; lactam N-11) | 8.82 | B (a compound having 3 or more and less than 10 is denoted as B) | B (a compound having 3 or more and less than 10 is denoted as B)
